Assay results as given in ChEMBL document CHEMBL5537154, “Smart glypican-3-targeting peptide-chlorin e6 conjugates for targeted photodynamic therapy of hepatocellular carcinoma” (Eur J Med Chem, 2024).
The source made the active and inactive calls. The rule behind the calls is not given here.

What was measured:
HepG2 [1] = experiment: Antiproliferative activity against human HepG2 cells under dark condition by CCK8 assay; format: functional, cell-based
HepG2 [2] = experiment: Antiproliferative activity against human HepG2 cells under 10 J/cm2 light irradiation at 660 nm by CCK8 assay; format: functional, cell-based; settings: HepG2, light or radiation study
Huh-7 [3] = experiment: Antiproliferative activity against human Huh-7 cells under dark condition by CCK8 assay; format: functional, cell-based
Huh-7 [4] = experiment: Antiproliferative activity against human Huh-7 cells under 10 J/cm2 light irradiation at 660 nm by CCK8 assay; format: functional, cell-based; settings: Huh-7, light or radiation study
MCF7 [5] = experiment: Antiproliferative activity against human MCF7 cells under dark condition by CCK8 assay; format: functional, cell-based
MCF7 [6] = experiment: Antiproliferative activity against human MCF7 cells under 10 J/cm2 light irradiation at 660 nm by CCK8 assay; format: functional, cell-based; settings: MCF7, light or radiation study
HeLa [7] = experiment: Antiproliferative activity against human HeLa cells under dark condition by CCK8 assay; format: functional, cell-based
HeLa [8] = experiment: Antiproliferative activity against human HeLa cells under 10 J/cm2 light irradiation at 660 nm by CCK8 assay; format: functional, cell-based; settings: light or radiation study
[9] = Antiproliferative activity against human HUVEC cells under dark condition by CCK8 assay; format: toxicity, cell-based
[10] = Antiproliferative activity against human HUVEC cells under 10 J/cm2 light irradiation at 660 nm by CCK8 assay; format: toxicity, cell-based
Glypican-3 = Glypican-3 (Homo sapiens, UniProt P51654); experiment: Binding affinity to GPC3 (unknown origin) assessed as dissociation constant by fluorescence polarization assay
Sequence of Glypican-3 (P51654 25-358 limits assumed): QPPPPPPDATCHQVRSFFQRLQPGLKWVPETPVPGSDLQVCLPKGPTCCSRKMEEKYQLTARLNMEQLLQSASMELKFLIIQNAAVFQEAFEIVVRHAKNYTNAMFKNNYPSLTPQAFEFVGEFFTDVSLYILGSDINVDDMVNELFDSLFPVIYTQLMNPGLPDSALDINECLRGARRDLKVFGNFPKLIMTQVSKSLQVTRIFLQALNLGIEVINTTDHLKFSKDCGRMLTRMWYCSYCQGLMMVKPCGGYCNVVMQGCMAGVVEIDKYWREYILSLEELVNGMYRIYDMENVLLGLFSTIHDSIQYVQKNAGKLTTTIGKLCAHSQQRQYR
Sequence of Glypican-3 (P51654 359-554 limits assumed): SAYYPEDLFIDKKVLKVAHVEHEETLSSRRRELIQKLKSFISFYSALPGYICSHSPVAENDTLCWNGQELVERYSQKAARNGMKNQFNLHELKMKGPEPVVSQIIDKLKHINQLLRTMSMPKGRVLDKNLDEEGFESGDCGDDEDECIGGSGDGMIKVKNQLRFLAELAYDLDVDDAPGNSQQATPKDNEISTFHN

[11] = Aggregation property of compound in PBS; format: physicochemical; settings: buffer
[12] = […] assessed as decrease in fluorescence intensity of DMA; format: functional
[13] = Drug uptake in human MCF7 cells incubated for 2 hrs by fluorescence based assay; format: ADME, cell-based; settings: mcf7, 2 h
[14] = Drug uptake in human HUVEC cells at 500 nM incubated for 0.5 hrs by flow cytometry; format: ADME, cell-based; settings: 0.5 µM
HepG2 [15] = experiment: Induction of ROS generation in human HepG2 cells at 10 uM incubated for 24 hrs by DCFH-DA probe based flow cytometry; format: functional, cell-based
HepG2 [16] = experiment: Induction of ROS generation in human HepG2 cells at 10 uM preincubated for 24 hrs followed by DCFH-DA probe addition and further incubated under dark condition for 20 mins prior and 20 mins post- light irradiation of 10 J/cm2 at 660 nm by flow cytometry; format: functional, cell-based; settings: time 24.66 hrs
[17] = Drug distribution in tumor of BALB/C nude mouse model xenografted with human HepG2 cells at 1 to 2 uM/kg, iv measured for 1 to 4 hrs by fluorescence imaging analysis; format: ADME, organism-based, Neoplasm; settings: in vivo, dose lower 1 µM/Kg, time lower 1 hrs, dose upper 2 µM/Kg, time upper 4 hrs
[18] = Drug distribution in BALB/C nude mouse model xenografted with human HepG2 cells at 1 to 2 uM/kg, iv measured after 1 hr by fluorescence imaging analysis; format: ADME, organism-based; settings: in vivo, dose 1-2 µM/Kg
[19] = Drug distribution in tumor of BALB/C nude mouse model xenografted with human HepG2 cells at 1 to 2 uM/kg, iv measured after 2 hrs by fluorescence imaging analysis; format: ADME, organism-based, Neoplasm; settings: in vivo, dose 1-2 µM/Kg
HepG2 [20] = experiment: Antitumor activity in human HepG2 cells xenografted in BALB/C nude mouse model assessed as tumor growth inhibition at 1 uM/kg, iv administered every two days for 21 days along with 250 mW/cm2 light irradiation at 660 nm for 10 mins at 1 hr post-compound administration relative to control; format: functional; settings: time 505.166 hrs, 505.17 h, at 1 µmol/kg
[21] = Toxicity in BALB/C nude mouse model xenografted with human HepG2 cells assessed as drug tolerance at 1 uM/kg, iv administered every two days for 21 days along with 250 mW/cm2 light irradiation at 660 nm for 10 mins at 1 hr post-compound administration; format: organism-based; settings: in vivo, 505.17 h, time 505.166 hrs
[22] = Toxicity in BALB/C nude mouse model xenografted with human HepG2 cells assessed as body weight loss at 1 uM/kg, iv administered every two days for 21 days along with 250 mW/cm2 light irradiation at 660 nm for 10 mins at 1 hr post-compound administration; format: organism-based; settings: in vivo, 505.17 h, time 505.166 hrs
[23] = Toxicity in BALB/C nude mouse model xenografted with human HepG2 cells assessed as change in heart weight at 1 uM/kg, iv administered every two days for 21 days along with 250 mW/cm2 light irradiation at 660 nm for 10 mins at 1 hr post-compound administration; format: organism-based; settings: in vivo, 505.17 h, time 505.166 hrs
[24] = Toxicity in BALB/C nude mouse model xenografted with human HepG2 cells assessed as change in liver weight at 1 uM/kg, iv administered every two days for 21 days along with 250 mW/cm2 light irradiation at 660 nm for 10 mins at 1 hr post-compound administration; format: organism-based; settings: in vivo, 505.17 h, time 505.166 hrs
[25] = Toxicity in BALB/C nude mouse model xenografted with human HepG2 cells assessed as change in spleen weight at 1 uM/kg, iv administered every two days for 21 days along with 250 mW/cm2 light irradiation at 660 nm for 10 mins at 1 hr post-compound administration; format: organism-based; settings: in vivo, 505.17 h, time 505.166 hrs
[26] = Toxicity in BALB/C nude mouse model xenografted with human HepG2 cells assessed as change in lung weight at 1 uM/kg, iv administered every two days for 21 days along with 250 mW/cm2 light irradiation at 660 nm for 10 mins at 1 hr post-compound administration; format: organism-based; settings: in vivo, 505.17 h, time 505.166 hrs
[27] = Toxicity in BALB/C nude mouse model xenografted with human HepG2 cells assessed as change in kidney weight at 1 uM/kg, iv administered every two days for 21 days along with 250 mW/cm2 light irradiation at 660 nm for 10 mins at 1 hr post-compound administration; format: organism-based; settings: in vivo, 505.17 h, time 505.166 hrs
[28] = Toxicity in BALB/C nude mouse model xenografted with human HepG2 cells assessed as damage in heart at 1 uM/kg, iv administered every two days for 21 days along with 250 mW/cm2 light irradiation at 660 nm for 10 mins at 1 hr post-compound administration by H and E staining based analysis; format: organism-based; settings: in vivo, 505.17 h, time 505.166 hrs
[29] = Toxicity in BALB/C nude mouse model xenografted with human HepG2 cells assessed as damage in liver at 1 uM/kg, iv administered every two days for 21 days along with 250 mW/cm2 light irradiation at 660 nm for 10 mins at 1 hr post-compound administration by H and E staining based analysis; format: organism-based; settings: in vivo, 505.17 h, time 505.166 hrs
[30] = Toxicity in BALB/C nude mouse model xenografted with human HepG2 cells assessed as damage in spleen at 1 uM/kg, iv administered every two days for 21 days along with 250 mW/cm2 light irradiation at 660 nm for 10 mins at 1 hr post-compound administration by H and E staining based analysis; format: organism-based; settings: in vivo, 505.17 h, time 505.166 hrs
[31] = Toxicity in BALB/C nude mouse model xenografted with human HepG2 cells assessed as damage in lung at 1 uM/kg, iv administered every two days for 21 days along with 250 mW/cm2 light irradiation at 660 nm for 10 mins at 1 hr post-compound administration by H and E staining based analysis; format: organism-based; settings: in vivo, 505.17 h, time 505.166 hrs
[32] = Toxicity in BALB/C nude mouse model xenografted with human HepG2 cells assessed as damage in kidney at 1 uM/kg, iv administered every two days for 21 days along with 250 mW/cm2 light irradiation at 660 nm for 10 mins at 1 hr post-compound administration by H and E staining based analysis; format: organism-based; settings: in vivo, 505.17 h, time 505.166 hrs
MCF7 [33] = experiment: Antitumor activity against human MCF7 cells xenografted in BALB/C nude mouse model assessed as decrease in tumor growth at 1 uM/kg, iv administered every two days for 21 days along with 250 mW/cm2 light irradiation at 660 nm for 10 mins at 1 hr post-compound administration; format: functional, organism-based; settings: time 505.166 hrs

C=Cc1c(C)c2cc3nc(c(CC(=O)O)c4[nH]c(cc5nc(cc1[nH]2)C(C)=C5CC)c(C)c4C(=O)O)[C@@H](CCC(=O)O)[C@@H]3C [CHLORIN E6]
IC50 (HepG2 [1]): > 100 µM | IC50 (HepG2 [2]): 16 µM | IC50 (Huh-7 [3]): > 100 µM | IC50 (Huh-7 [4]): 18 µM | IC50 (MCF7 [5]): > 100 µM | IC50 (MCF7 [6]): > 10 µM | IC50 (HeLa [7]): > 100 µM | IC50 (HeLa [8]): > 10 µM | IC50 [9]: > 200 µM | IC50 [10]: > 10 µM | Kd (Glypican-3): > 10 µM | Activity [11]: Active | Activity [12]: Active | Drug uptake [13]: Active | Drug uptake [14]: Active | Activity (HepG2 [15]): inactive | Activity (HepG2 [16]): Active | Drug uptake [17]: Active | Drug uptake [18]: Active | Drug uptake [19]: Not Active | TGI (HepG2 [20]): 71.3% | Activity [21]: Non-Toxic | Activity [22]: Non-Toxic | Activity [23]: Non-Toxic | Activity [24]: Non-Toxic | Activity [25]: Non-Toxic | Activity [26]: Non-Toxic | Activity [27]: Non-Toxic | Activity [28]: Non-Toxic | Activity [29]: Non-Toxic | Activity [30]: Non-Toxic | Activity [31]: Non-Toxic | Activity [32]: Non-Toxic | Activity (MCF7 [33]): Active
